Data: patent publication US5049372A, “Anticancer activities in a host by increasing blood and plasma adenosine 5'-triphosphate (ATP) levels” (priority 1988, dated 1991)
Structures can show the parent of a compound that is named as a salt.

What was measured:
CT26 tumors = test: Growth inhibition of s.c. footpad CT26 tumors in CB6F1 mice by daily i.p. adenine nucleotides (Table 1); type: in vivo, mouse; conditions: 0.5 × 10^6 cells, 1 ml of 50 mM i.p. daily
Experimental: (§1) The tumor cell lines employed were CT26, a mouse undifferentiated, aggressive colon carcinoma, and CAPAN-1, a well-differentiated human pancreatic adenocarcinoma. […] The cells are shown to be free of Mycoplasma contamination. Cells are cultured at 37° C. in a humidified atmosphere of 5% CO2 /95% air in MEM supplemented with antibiotics (100 units of penicillin per ml and 100 μg streptomycin per ml), L-glutamine (2 mM), non-essential amino acids (0.1 mM), sodium pyruvate (1 mM), and 10% fetal bovine serum.
(§2) In the tests, females and males CB6F1 mice (a standard F1 hybrid of BALB/C and C57BL/6) obtained from Jackson Laboratories, Bar Harbor, Maine and athymic outbred NCr nu/nu mice (males and females) from the Department of Radiation Medicine, Massachusetts General Hospital, Boston, Mass. 02114 are used. All the mice are kept for at least two weeks before inoculation of the tumors and the start of treatment and are 7-9 weeks old (CB6F1) or 6-7 weeks old (athymic nu/nu) at the start of the procedure. Animals weigh 20-25 g (females) or 23-28 g (males), are housed 5-12 per cage, and have ad libitum access to food and water.
(§3) Tumor cells are removed from subconfluent cultures by a mild trypsin-EDTA treatment, the cell pellet is washed once with MEM without serum and the cells are suspended at the desired cell numbers in PBS (phosphate-bufferedsaline, 8 g NaCl, 0.2 g KCl, 1.15 g Na2 HPO4.7H2 O, and 0.2 g KH2 PO4 per liter). Cell suspensions are shown to be at least 90% viable by trypan blue exclusion. Mice are injected subcutaneously in the right hind footpad with tumor cells suspended in 50 μl of PBS. The regular protocol (unless otherwise stated) consists of daily i.p. injections of 1 ml of 0.85% NaCl solution or 1 ml of 50 mM of AMP, ADP, or ATP in 0.85% NaCl (from stock solutions adjusted to pH 6.2) starting one day after tumor inoculation and given for ten consecutive days.
(§4) Injections are administered with 30 gauge needles and the mice are lightly anesthetized with ether. The mice are weighed before the start of treatment and once a week during and after treatment. After the tumors become palpable, tumor sizes are determined every three days. The animals are sacrificed, tumors are excised and weighed before they reach 10% of the animals' weight.
The growth inhibitory properties of adenine nucleotides against CT26 murine colon carcinoma, which are inoculated s.c. in the hind footpad of CB6F1 mice, are illustrated in Table 1 hereinbelow. […] No significant differences between males and females are observed either in the rate of tumor growth or in the tumor's response to adenine nucleotides treatment.

CAPAN-1 xenografts = test: Arrest of growth of CAPAN-1 xenografts in athymic nu/nu mice (Table 2); type: in vivo, human; conditions: experiment 5, 10 F, 0.5 × 10^5 cells, 9 weeks, 1 ml of 50 mM i.p.
Experimental: as §1, §2, §3, §4
The effects of AMP, ADP, and ATP on human tumor xenografts in nude mice were evaluated utilizing the pancreatic ductal adenocarcinoma CAPAN-1 (see Kyriazis AP, Kyriazis AA, Scarpelli DG, Fogh J, Rao SM, Lepera R., "Human Pancreatic Adenocarcinoma Line CAPAN-1 in Tissue Culture and the Nude Mouse", Am. J. Pathol., 1982, 106, 250-260).
Treatment schedules consist of single daily i.p. injections for 10 consecutive days, starting one day after tumor inoculation. Tumor burden is relatively low (0.5-1×10^5 cells implanted) and tumor growth is slow (tumors became palpable 4-6 weeks after inoculation).

[1] = ATP levels in mouse blood (total cellular) and plasma after i.p. injection (Table 3); type: in vivo; conditions: CB6F1; for Blood ATP levels: total cellular
Experimental: The mice are anesthetized with ether during the procedure. The plasma is prepared by immediate centrifugation of the blood in a Beckman microfuge (30 sec at 8000 xg). Blood (20 μl) or plasma (100 μl) aliquots are added to 1 ml of cold 7% trichloroacetic acid. […] The determination of ATP levels in the extracts is performed by bioluminometry (luciferinluciferase) using a Turner Designs Bioluminescence Photometer.

[2] = Host toxicity (deaths, body weight) in treated mice; type: in vivo, mouse; conditions: i.p. injections of adenine nucleotides
Experimental: as §3, §4

tumor cells = conditions: low doses; prior application Ser. No. 397,897; cited from earlier work
[3] = tested on: blood plasma phosphodiesterase; conditions: anticoagulant; chelation of divalent cations; cited from earlier work
human subjects = conditions: single rapid injections of 40 mg, intravenous or intra-arterial; cited from earlier work
tumor-bearing hosts = conditions: literature; cited from earlier work
[4] = experiment 3, 12 M per group, day 13
[5] = experiment 4, 11 F per group, day 14
[6] = 1 hour after i.p. 1 ml of 50 mM
[7] = 5 hours after i.p. 1 ml of 50 mM

Nc1ncnc2c1ncn2[C@@H]1O[C@H](COP(=O)(O)OP(=O)(O)O)[C@@H](O)[C@H]1O [ADP, adenosine 5'-diphosphate]
Tumor diameter (CT26 tumors; [4]): 1.3 ± 0.2 cm | Tumor weight (CT26 tumors; [4]): 0.73 ± 0.23 g | Tumor diameter (CT26 tumors; [5]): 1.1 ± 0.2 cm | Tumor weight (CT26 tumors; [5]): 0.86 ± 0.27 g | Arrested tumors/implanted tumors (CAPAN-1 xenografts): 6/10 | Plasma ATP levels [1, 6]: 2.66 ± 0.46 µM | Blood ATP levels [1, 6]: 1.28 ± 0.30 mM | Plasma ATP levels [1, 7]: 2.75 ± 0.87 µM | Blood ATP levels [1, 7]: 1.65 ± 0.41 mM | Deaths [2]: Occasionally, an animal treated with ATP or ADP would die a few hours after injection | Effect on growth of tumor cells in vitro (in words) (tumor cells): marked inhibition of DNA synthesis and arrest of significant populations of cells in the S phase of their cycle

O=C(O)CC(O)(CC(=O)O)C(=O)O [Citrate]
Inhibition of blood plasma phosphodiesterase activity [3]: inhibit the activity of a blood plasma phosphodiesterase

Nc1ncnc2c1ncn2[C@@H]1O[C@H](COP(=O)(O)OP(=O)(O)OP(=O)(O)O)[C@@H](O)[C@H]1O [sodium salt of ATP, reference compound]
Subjective and physiological changes in human subjects (human subjects): small subjective and physiological changes in human subjects

insulin: the anabolic hormone insulin
Effect against rapid weight losses in tumor-bearing hosts (tumor-bearing hosts): effective against rapid weight losses in tumor-bearing hosts | Effect on growth of the tumor itself (tumor-bearing hosts): do not inhibit the growth of the tumor itself
